Experimental data from patent US10449269B2, “Particle conjugated prosthetic patches and methods of making and using thereof” (Yale University, priority 2016, dated 2019).

Experiments:
[1] = tested on: TGF-β1-induced collagen Iα1 mRNA; conditions: cited from earlier work
[2] = tested on: TGF-β1-induced PAI-1 mRNA; conditions: cited from earlier work
[3] = tested on: TGF-β1-induced fibronectin mRNA; conditions: cited from earlier work
[4] = tested on: TGF-β1-induced fibronectin protein; conditions: cited from earlier work
[5] = biological target: T1, nodal type I receptor ALK7 (Homo sapiens, UniProt Q8NER5); conditions: cited from earlier work
T1 sequence (Q8NER5 21-493): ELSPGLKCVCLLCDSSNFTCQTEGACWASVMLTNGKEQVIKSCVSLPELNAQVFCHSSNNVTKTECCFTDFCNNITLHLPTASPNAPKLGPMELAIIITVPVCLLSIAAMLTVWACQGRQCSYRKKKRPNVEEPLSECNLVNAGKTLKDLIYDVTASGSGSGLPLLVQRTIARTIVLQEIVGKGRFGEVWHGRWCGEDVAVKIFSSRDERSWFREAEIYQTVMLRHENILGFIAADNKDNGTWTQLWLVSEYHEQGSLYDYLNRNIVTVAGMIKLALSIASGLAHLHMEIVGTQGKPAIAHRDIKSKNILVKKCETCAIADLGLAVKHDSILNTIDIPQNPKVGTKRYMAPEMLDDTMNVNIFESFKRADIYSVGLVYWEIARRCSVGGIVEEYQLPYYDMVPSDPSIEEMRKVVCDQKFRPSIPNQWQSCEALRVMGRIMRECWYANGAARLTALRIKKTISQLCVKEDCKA

[6] = TGF-β1 release from NP patches in PBS (Micro BCA); type: physicochemical; conditions: in vitro
Description: Pericardial patches were covalently modified using NP loaded with TGF-β1. TGF-β1 (4 μg) was dissolved in PBS (200 μL) and added to chloroform (2 mL) containing carboxylated poly(lactic-coglycolic acid) (PLGA) (100 mg). The mixture was then added drop-wise to 5% polyvinyl alcohol (PVA) (4 mL) and sonicated three times to form NP. The NP were dispersed in 0.2% PVA solution (200 mL) to evaporate the solvent for 2 h while stirring (40 ng TGF-β1/mg NP, […]). Patches (7 mm×5 mm) were conjugated with the NP using ethyl (dimethylaminopropyl) carbodiimide/N-hydroxysuccinimide (EDC/NHS) chemistry, as discussed above. EDC (20 μmol/mL) and NHS (10 μmol/mL) were dissolved in MES solution (0.1 M; pH 5) for the conjugation. Carboxyl groups on the NP were activated using EDC (1 mL) for 30 min and substituted with NHS by adding NHS (1 mL) for 30 min. The solution pH was raised from 5 to 8 using NaOH (1 M). Patches were then placed into the activated NP suspension and incubated at 37° C. overnight. To assess TGF-β1 release from NP patches in vitro, the patches were incubated in PBS at 37° C. The supernatant was collected at the desired time points and used to quantify TGF-β1 using a Micro BCA Protein Assay Kit (Thermo Fisher Scientific).

In the case of `NC(=O)c1ccc(-c2nc(-c3ccc4c(c3)OCO4)c(-c3ccccn3)[nH]2)cc1` [SB 431542], the IC50 [1] is given as 60 nM, the IC50 [2] is given as 50 nM and the IC50 [3] is given as 62 nM. The IC50 [4] was 22 nM and the “inhibition of ALK7” value [5] was “inhibits”.
In the case of “TGF β1: polypeptide member of the transforming growth factor beta superfamily of cytokines”, the “duration of sustained release of TGF-β1” value [6] is reported as 2-3 weeks, the “period in which cumulative release was highest (first days)” value [6] is reported as 5 days and the “time until which release slowly decreased” value [6] is reported as 21 days.
